Results taken from ChEMBL document CHEMBL1135981, “Designing analogues of mini atrial natriuretic peptide based on structural analysis by NMR and restrained molecular dynamics” (J Med Chem, 2002).

Tested on: CHO
Assay: Evaluated for Biological activity, 50% effective concentration determined by its ability to produce cGMP
Format: functional, cell-based
Conditions: Cricetulus griseus

CC[C@H](C)[C@@H]1NC(=O)[C@H](CCCN=C(N)N)NC(=O)[C@H](CC(=O)O)NC(=O)[C@H](CCSC)NC(=O)[C@H](CCCN=C(N)N)NC(=O)CNC(=O)[C@@H](C)NC(=O)[C@H](Cc2ccccc2)NC(=O)[C@H](Cc2c[nH]cn2)NC(=O)[C@@H](NC(=O)[C@@H](N)CCSC)CSSC[C@@H](C(=O)N[C@@H](Cc2ccc(O)cc2)C(=O)N[C@@H](CCCN=C(N)N)C(N)=O)NC(=O)[C@H](CO)NC1=O
EC50: 0.176 nM

CC[C@H](C)[C@@H]1NC(=O)[C@H](CCCN=C(N)N)NC(=O)[C@H](CC(=O)O)NC(=O)[C@H](CCSC)NC(=O)[C@H](CCCN=C(N)N)NC(=O)[C@@H](C)NC(=O)CNC(=O)[C@H](Cc2ccccc2)NC(=O)[C@H](Cc2c[nH]cn2)NC(=O)[C@@H](NC(=O)[C@@H](N)CCSC)CSSC[C@@H](C(=O)N[C@@H](Cc2ccc(O)cc2)C(=O)N[C@@H](CCCN=C(N)N)C(N)=O)NC(=O)[C@H](CO)NC1=O
EC50: 3.76 nM

CC[C@H](C)[C@@H]1NC(=O)[C@H](CCCN=C(N)N)NC(=O)[C@H](CC(=O)O)NC(=O)[C@H](CCSC)NC(=O)[C@H](CCCN=C(N)N)NC(=O)[C@@H](C)NC(=O)[C@@H](C)NC(=O)[C@H](Cc2ccccc2)NC(=O)[C@H](Cc2c[nH]cn2)NC(=O)[C@@H](NC(=O)[C@@H](N)CCSC)CSSC[C@@H](C(=O)N[C@@H](Cc2ccc(O)cc2)C(=O)N[C@@H](CCCN=C(N)N)C(N)=O)NC(=O)[C@H](CO)NC1=O
EC50: 1.31 nM
